From patent US20130345177A1, “Oleyl Phosphocholine for the Treatment of Mycosis” (DAFRA PHARMA RESEARCH & DEVELOPMENT BVBA, priority 2011, published 2013)
Values after ≈ are worked out from the molar mass of the structure shown.

Legend:
[1] = tested on: Aspergillus fumigatus IHEM 18963 (NCPF 7367); assay: CLSI broth dilution antifungal susceptibility (microplates); assay type: cell-based; conditions: for MIC100 (48 h): 48 hours of incubation; for MIC: NCPF7367, 48 hours of incubation, read-out: MIC100 (48 h)
Description: (§1) The above strains were contacted with oleyl phosphocholine on microplates and the anti-fungal activity of oleyl phosphocholine was determined. In comparison, the same test was performed using amphotericin B (AMB), voriconazole (VRZ) and itraconazole (ITR). The test protocol used was in conformity with the standard CLSI method: Clinical and Laboratory Standards Institute/National Committee for Clinical Laboratory Standards (2002) Reference method for broth dilution antifungal susceptibility testing of yeasts. […] Clinical and Laboratory Standards Institute/National Committee for Clinical Laboratory Standards Institute, Wayne Pa. Clinical and Laboratory Standards Institute/National Committee for Clinical Laboratory Standards. (2002) Reference method for broth dilution antifungal susceptibility testing of filamentous fungi. Approved Standard document M38-A. Clinical and Laboratory Standards Institute/National Committee for Clinical Laboratory Standards Institute, Wayne […]

[2] = tested on: Aspergillus niger IHEM 5788 (ATCC 10864); assay: as above; assay type: cell-based; conditions: for MIC100 (48 h): 48 hours of incubation; for MIC: ATCC10864, 48 hours of incubation, read-out: MIC100 (48 h)
Description: as §1

[3] = tested on: Aspergillus terreus IHEM 13669 (clinical isolate); assay: as above; assay type: cell-based; conditions: 48 hours of incubation; for MIC: read-out: MIC100 (48 h)
Description: as §1

[4] = tested on: Candida albicans IHEM 3731 (ATCC 10231); assay: as above; assay type: cell-based; conditions: for MIC100 (48 h): 48 hours of incubation, inhibits growth of 100%; for MIC50: ATCC10231, 48 hours of incubation, inhibits growth of 50%
Description: as §1

[5] = tested on: Candida glabrata IHEM 19371 (clinical blood isolate); assay: as above; assay type: cell-based; conditions: 48 hours of incubation; for MIC100 (48 h): inhibits growth of 100%; for MIC50: Nakaseomyces glabratus, inhibits growth of 50%
Description: as §1

[6] = tested on: Candida krusei IHEM 9560 (ATCC 6258); assay: as above; assay type: cell-based; conditions: for MIC100 (48 h): 48 hours of incubation, inhibits growth of 100%; for MIC50: Pichia kudriavzevii, ATCC6258, 48 hours of incubation, inhibits growth of 50%
Description: as §1

[7] = tested on: Candida parapsilosis IHEM 3270 (ATCC 22019); assay: as above; assay type: cell-based; conditions: for MIC100 (48 h): 48 hours of incubation, inhibits growth of 100%; for MIC50: Lodderomyces parapsilosis, ATCC22019, 48 hours of incubation, inhibits growth of 50%
Description: as §1

[8] = tested on: Fusarium solani IHEM 18489 (clinical isolate); assay: as above; assay type: cell-based; conditions: 48 hours of incubation; for MIC: read-out: MIC100 (48 h)
Description: as §1

[9] = tested on: Scedosporium prolificans IHEM 22387 (clinical blood isolate); assay: as above; assay type: cell-based; conditions: 48 hours of incubation; for MIC: Lomentospora prolificans, read-out: MIC100 (48 h)
Description: as §1

[10] = tested on: Candida albicans IHEM 19114 (clinical blood isolate resistant for voriconazole and itraconazole); assay: as above; assay type: cell-based; conditions: Candida albicans IHEM 19114 (resistant), 48 hours of incubation; for MIC100 (48 h): inhibits growth of 100%; for MIC50: inhibits growth of 50%
Description: The following ten strains were tested for assaying the anti-fungal activity of oleyl phosphocholine.
The above strains were contacted with oleyl phosphocholine on microplates and the anti-fungal activity of oleyl phosphocholine was determined. In comparison, the same test was performed using amphotericin B (AMB), voriconazole (VRZ) and itraconazole (ITR).
The test protocol used was in conformity with the standard CLSI method:
Clinical and Laboratory Standards Institute/National Committee for Clinical Laboratory Standards (2002) Reference method for broth dilution antifungal susceptibility testing of yeasts. Approved Standard document M27-A2. Clinical and Laboratory Standards Institute/National Committee for Clinical Laboratory Standards Institute, Wayne Pa. Clinical and Laboratory Standards Institute/National Committee for Clinical Laboratory Standards. (2002) Reference method for broth dilution antifungal susceptibility testing of filamentous fungi. Approved Standard document M38-A. Clinical and Laboratory Standards Institute/National Committee for Clinical Laboratory Standards Institute, Wayne
The results, after visual and spectrophometric reading after 48 hours of incubation, are presented as MIC50 and MIC 100, i.e. the minimum inhibitory concentration required inhibiting the growth of 50% or 100% of the microorganisms, respectively.

[11] = tested on: Aspergillus fumigatus B19119; assay: In vitro efficacy against yeasts and fungi (microplates); assay type: cell-based
Description: (§2) The above strains were contacted oleyl phosphocholine on microplates and the anti-fungal activity of oleyl phosphocholine was determined. Anti-fungal activity was expressed as IC50, i.e. the concentration oleyl phosphocholine needed to kill 50% of the pathogens.

[12] = tested on: Aspergillus fumigatus B42928; assay: as above; assay type: cell-based
Description: as §2

[13] = tested on: Aspergillus fumigatus; assay: as above; assay type: cell-based
Description: as §2

[14] = tested on: Candida albicans B59630 (R); assay: as above; assay type: cell-based
Description: as §2

[15] = tested on: Candida albicans B63195 (S); assay: as above; assay type: cell-based
Description: as §2

[16] = tested on: Candida albicans; assay: as above; assay type: cell-based; conditions: concentration needed to kill 50% of the pathogens
Description: as §2

[17] = tested on: Candida parapsilosis B66126; assay: as above; assay type: cell-based
Description: as §2

[18] = tested on: Cryptococcus neoformans B66663; assay: as above; assay type: cell-based
Description: as §2

[19] = tested on: Cryptococcus neoformans; assay: as above; assay type: cell-based
Description: as §2

[20] = tested on: Fusarium oxysporum IHEM3014; assay: as above; assay type: cell-based
Description: as §2

[21] = tested on: Fusarium solani IHEM22128; assay: as above; assay type: cell-based
Description: as §2

[22] = tested on: Microsporum canis; assay: as above; assay type: cell-based
Description: as §2

[23] = tested on: Sporothrix schenkii B62482; assay: as above; assay type: cell-based
Description: as §2

[24] = tested on: Sporothrix schenkii; assay: as above; assay type: cell-based
Description: as §2

[25] = tested on: Trichophyton mentagrophytes B70554; assay: as above; assay type: cell-based
Description: as §2

[26] = tested on: Trichophyton rubrum B68183; assay: as above; assay type: cell-based
Description: as §2

[27] = tested on: Trichophyton rubrum; assay: as above; assay type: cell-based
Description: as §2

[28] = people taking itraconazole; cited from earlier work
[29] = tested on: Candida yeast; conditions: patients with culture-proven candidemia; cited from earlier work

MIC [1] [µg/mL] | MIC [2] [µg/mL] | MIC [3] [µg/mL] | MIC50 [4] [µg/mL] | MIC50 [5] [µg/mL] | MIC50 [6] [µg/mL] | MIC50 [7] [µg/mL] | MIC [8] [µg/mL] | MIC [9] [µg/mL] | MIC50 [10] [µg/mL] | Structure (SMILES) | MIC100 (48 h) [1] [µg/mL] | MIC100 (48 h) [2] [µg/mL] | MIC100 (48 h) [3] [µg/mL] | MIC100 (48 h) [4] [µg/mL] | MIC100 (48 h) [5] [µg/mL] | MIC100 (48 h) [6] [µg/mL] | MIC100 (48 h) [7] [µg/mL] | MIC100 (48 h) [8] [µg/mL] | MIC100 (48 h) [9] [µg/mL] | MIC100 (48 h) [10] [µg/mL] | other results
 |  |  |  |  |  |  |  |  |  | CCCCCCCC/C=C\CCCCCCCCOP(=O)([O-])OCC[N+](C)(C)C [OlPC, oleyl phosphocholine] | 5 (≈ 11.5 µM) | 10 (≈ 23.1 µM) | 10 (≈ 23.1 µM) | 2.5 (≈ 5.77 µM) | 5 (≈ 11.5 µM) | 5 (≈ 11.5 µM) | 5 (≈ 11.5 µM) | 5 (≈ 11.5 µM) | 5 (≈ 11.5 µM) | 2.5 (≈ 5.77 µM) | IC50 [11]: 1870 nM; IC50 [12]: 8 µM; IC50 [13]: 18.8 µM; IC50 [14]: 8 µM; IC50 [15]: 7.77 µM; IC50 [16]: 7.89 µM; IC50 [17]: 8 µM; IC50 [18]: 500 nM; IC50 [19]: 4.5 µM; IC50 [20]: 2550 nM; IC50 [21]: 2310 nM; IC50 [22]: 1660 nM; IC50 [23]: 1970 nM; IC50 [24]: 8.16 µM; IC50 [25]: 2000 nM; IC50 [26]: 2000 nM; IC50 [27]: 5.87 µM
0.5 (≈ 0.709 µM) | 0.5 (≈ 0.709 µM) | 0.25 (≈ 0.354 µM) | 0.032 (≈ 0.0453 µM) | 0.5 (≈ 0.709 µM) | 0.25 (≈ 0.354 µM) | 0.064 (≈ 0.0907 µM) | > 16 | > 16 | > 16 | CCC(C)n1ncn(-c2ccc(N3CCN(c4ccc(OCC5COC(Cn6cncn6)(c6ccc(Cl)cc6Cl)O5)cc4)CC3)cc2)c1=O (centres unmarked) [ITR, itraconazole] |  |  |  |  |  |  |  |  |  |  | people with elevated alanine aminotransferase levels [28]: 4%
1 (≈ 2.86 µM) | 1 (≈ 2.86 µM) | 0.5 (≈ 1.43 µM) | 0.064 (≈ 0.183 µM) | 0.25 (≈ 0.716 µM) | 0.5 (≈ 1.43 µM) | 0.125 (≈ 0.358 µM) | 16 (≈ 45.8 µM) | 16 (≈ 45.8 µM) | > 16 | C[C@@H](c1ncncc1F)[C@](O)(Cn1cncn1)c1ccc(F)cc1F [VRZ, voriconazole] |  |  |  |  |  |  |  |  |  |  | 
 |  |  |  |  |  |  |  |  |  | C[C@@H]1[C@H](O)[C@@H](C)/C=C/C=C/C=C/C=C/C=C/C=C/C=C/[C@H](O[C@@H]2O[C@H](C)[C@@H](O)[C@H](N)[C@@H]2O)C[C@@H]2O[C@](O)(C[C@@H](O)C[C@@H](O)[C@H](O)CC[C@@H](O)C[C@@H](O)CC(=O)O[C@H]1C)C[C@H](O)[C@H]2C(=O)O [AMB, amphotericin B] | 2 (≈ 2.16 µM) | 1 (≈ 1.08 µM) | >8 | 0.5 (≈ 0.541 µM) | 0.5 (≈ 0.541 µM) | 1 (≈ 1.08 µM) | 1 (≈ 1.08 µM) | 2 (≈ 2.16 µM) | >8 | 0.5 (≈ 0.541 µM) | time to clear Candida yeast from the bloodstream (median) [29]: 2 days
